Data on 4 compounds can be found in PubChem BioAssay (NCI).

Structures are written as SMILES.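 All cell lines were grown in 96-well plates and treated with compound for 48 hours. GI50 marks 50% less growth. TGI: total growth inhibition.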

Common to all, as to test: NCI anticancer screen, dose series, 48 h
The subject of assay [1] is NCI-H226 lung.
Assay [2] has as its system DU-145 prostate.
Assay [3] deals with HS 578T breast.
Assay [4] relates to SK-MEL-28 melanoma.
Assay [5] deals with A549 NSCLC.
Assay [6] relates to A498 renal.
The subject of assay [7] is KM12 colon.
Assay [8] has as its system SF-539 CNS.
For assay [9], the system named is MCF7 breast.
The subject of assay [10] is SK-OV-3 ovarian.

Turning to `CCCc1n(Cc2ccc3ccccc3n2)cc[n+]1Cc1ccc2ccccc2c1`, the GI50 in assay [1] is 1.2 µM; in assay [2], 1.52 µM; in [3], 2.13 µM; in assay [4], 1.24 µM; in assay [5] it was 1.88 µM; in [6], 1.81 µM. Also, the GI50 is 0.626 µM in assay [7], 0.861 µM in [8], 0.647 µM in assay [9] and 1.26 µM in assay [10]. The TGI in [1] stood at 7.6 µM; in assay [2], 12.8 µM; in assay [3] it was 9.42 µM; in assay [4] it was 6.23 µM; in assay [5], 11.8 µM; in assay [6], 6.68 µM. For the same compound, the TGI in assay [7] turned out to be 2.5 µM; in assay [8], 10.4 µM; in [9], 4.7 µM; in assay [10] it was 4.02 µM.

As to `CCN(CC)c1ccc(/C=N/NC(=O)c2ccccc2Nc2ccnc(C(F)(F)F)c2)c(O)c1`, the GI50 in [1] is 0.235 µM; in [2], 0.134 µM; in [3], 1.11 µM; in assay [4] it was 0.243 µM; in [5], 0.235 µM; in [6] it was 0.354 µM. Besides, the GI50 in assay [7] was 0.268 µM; in [8] it was 0.248 µM; in [9], 0.248 µM; in [10] it was 0.169 µM. Moreover, the TGI is 2.37 µM in assay [1]; more than 100 µM in assay [2]; more than 51.6 µM in assay [3]; more than 100 µM in assay [4]; more than 100 µM in assay [5]; more than 32.9 µM in assay [6]. For the same compound, the TGI in assay [7], in [9] and in assay [10] was more than 100 µM in each case.

For the compound `CCCCCCCCCCCCC(NC(C)=O)(C(=O)OCC)C(=O)OCC`, the GI50 in assay [1] is 12.5 µM; in [2] it was 15.1 µM; in [3], 14 µM; in assay [4], 13.5 µM; in assay [5] it was 14.3 µM; in assay [6] it was 13.5 µM. For the same compound, the GI50 in [7] was 11.1 µM; in assay [8] it was 16 µM; in assay [9], 7.41 µM; in assay [10] it was 12.6 µM. Also, the TGI in assay [1] amounted to 27.2 µM; in assay [2], 28.6 µM; in [3], 45.8 µM; in assay [4], 26.9 µM; in assay [5] it was 32.5 µM; in [6], 26.6 µM. For the same compound, the TGI in assay [7] is 28.9 µM; in assay [8] it was 33.1 µM; in [9], 21.2 µM; in assay [10] it was 25.7 µM.

Turning to `CC(=Nc1ccccc1)C1=C(O)C(Cc2ccc(F)cc2)NC1=O` (centres undefined), the GI50 in assay [1] is 39.5 µM; in assay [2], 2.12 µM; in [3], 2.44 µM; in [4] it was 2.63 µM; in assay [5], 0.675 µM; in assay [6], 0.444 µM. The GI50 in assay [7] was 0.4 µM; in assay [8] it was 1.36 µM; in assay [9], 0.412 µM; in assay [10], 1.23 µM. For the same compound, the TGI is more than 100 µM in assay [1]; more than 100 µM in assay [2]; more than 100 µM in [3]; more than 100 µM in assay [4]; more than 100 µM in assay [5]; 5.04 µM in assay [6]. The TGI in [7] was more than 100 µM; in [8] it was 12.1 µM; in assay [9], more than 100 µM; in assay [10] it was 9.01 µM.
